PMC9989937, “In-vitro antioxidant, lipoxygenase inhibitory, and in-vivo muscle relaxant potential of the extract and constituent isolated from Diospyros kaki (Japanese Persimmon)” (Heliyon, 2023)
pIC50: −log10 of the molar value.

Tests used:
[1] = molecular target: T1, lipoxygenase (EC 1.13.11.12) Type 1 (soybean) (Glycine max, UniProt P08170); test: spectrophotometric lipoxygenase inhibition assay with linoleic acid substrate (positive control); format: biochemical
T1 construct: gene LOX1.1
T1 sequence (P08170 1-839): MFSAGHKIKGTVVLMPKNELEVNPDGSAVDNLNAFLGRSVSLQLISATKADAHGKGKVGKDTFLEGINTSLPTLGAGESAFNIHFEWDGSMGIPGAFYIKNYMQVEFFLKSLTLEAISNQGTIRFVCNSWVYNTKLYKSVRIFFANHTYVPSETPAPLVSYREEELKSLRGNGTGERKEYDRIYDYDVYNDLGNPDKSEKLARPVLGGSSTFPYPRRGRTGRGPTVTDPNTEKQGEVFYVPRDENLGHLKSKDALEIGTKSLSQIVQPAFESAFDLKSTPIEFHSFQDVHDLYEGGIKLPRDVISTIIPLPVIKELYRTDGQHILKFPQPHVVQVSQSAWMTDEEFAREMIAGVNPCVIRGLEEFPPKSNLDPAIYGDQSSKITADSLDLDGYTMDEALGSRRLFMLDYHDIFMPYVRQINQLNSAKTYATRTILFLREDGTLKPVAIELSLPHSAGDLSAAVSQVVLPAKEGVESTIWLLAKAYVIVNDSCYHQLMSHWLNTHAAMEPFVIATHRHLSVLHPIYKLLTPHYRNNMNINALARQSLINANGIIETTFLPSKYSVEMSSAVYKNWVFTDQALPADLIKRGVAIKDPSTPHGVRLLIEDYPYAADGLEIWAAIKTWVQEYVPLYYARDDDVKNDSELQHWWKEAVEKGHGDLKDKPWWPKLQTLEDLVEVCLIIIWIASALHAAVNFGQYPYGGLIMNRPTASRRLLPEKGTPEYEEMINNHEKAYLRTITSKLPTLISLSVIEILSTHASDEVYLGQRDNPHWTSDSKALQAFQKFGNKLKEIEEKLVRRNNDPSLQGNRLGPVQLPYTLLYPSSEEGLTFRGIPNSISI

[2] = molecular target: T1, lipoxygenase (EC 1.13.11.12) Type 1 (soybean); test: spectrophotometric lipoxygenase inhibition assay with linoleic acid substrate; format: biochemical

O=c1cc(-c2ccccc2)oc2cc(O)c(O)c(O)c12 [Baicalein]
pIC50 [1]: 4.39

NC(=O)N1C(=O)/C(=C(\O)c2cccs2)c2cc(Cl)ccc21 [Tenidap]
pIC50 ([1]; read-out: IC50): 4.64

COc1c(C)c(-c2cc(O)c3c(c2O)C(=O)C(C)=CC3=O)c(OC)c2c1C(=O)C=CC2=O [compound 1, 1′,4′-dihydroxy-1,4-dimethoxy-3,7′-dimethyl-[2,2′-binaphthalene]-5,5′,8,8′-tetraone]
pIC50 [2]: 4.43
